Test results as given in PubChem BioAssay (NCI).
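The compound was tested at five concentrations on cells cultured in 96-well plates, with a 48-hour exposure period. At the GI50, growth is halved. TGI denotes the concentration required for complete inhibition of growth.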

Tests used:
Assay in all cases: DTP human tumour cell line panel, 48 h; in the data active = GI50 below about 0.43 µM; inactive = the rest
OVCAR-3 ovarian = system: OVCAR-3 ovarian
OVCAR-8 ovarian = system: OVCAR-8 ovarian
UACC-257 melanoma = system: UACC-257 melanoma
ACHN renal = system: ACHN renal
MOLT-4 leukemia = system: MOLT-4 leukemia
UO-31 renal = system: UO-31 renal
SF-295 CNS = system: SF-295 CNS
SK-MEL-5 melanoma = system: SK-MEL-5 melanoma
HOP-62 NSCLC = system: HOP-62 NSCLC
NCI-H522 lung = system: NCI-H522 lung
SF-539 CNS = system: SF-539 CNS
NCI-H226 lung = system: NCI-H226 lung
RPMI-8226 leukemia = system: RPMI-8226 leukemia
DU-145 prostate = system: DU-145 prostate
CCRF-CEM leukemia = system: CCRF-CEM leukemia
BT-549 breast = system: BT-549 breast
SK-MEL-28 melanoma = system: SK-MEL-28 melanoma
SR leukemia = system: SR leukemia
SW-620 colon = system: SW-620 colon
SF-268 CNS = system: SF-268 CNS
786-0 renal = system: 786-0 renal
IGROV1 ovarian = system: IGROV1 ovarian
UACC-62 melanoma = system: UACC-62 melanoma
MDA-MB-231 breast = system: MDA-MB-231 breast
MALME-3M melanoma = system: MALME-3M melanoma
NCI/ADR-RES ovarian = system: NCI/ADR-RES ovarian
SK-OV-3 ovarian = system: SK-OV-3 ovarian
COLO 205 colon = system: COLO 205 colon
M14 melanoma = system: M14 melanoma
TK-10 renal = system: TK-10 renal
LOX IMVI melanoma = system: LOX IMVI melanoma
SNB-19 CNS = system: SNB-19 CNS
CAKI-1 renal = system: CAKI-1 renal
MCF7 breast = system: MCF7 breast
SNB-75 CNS = system: SNB-75 CNS
SK-MEL-2 melanoma = system: SK-MEL-2 melanoma
K-562 leukemia = system: K-562 leukemia
HCT-116 colon = system: HCT-116 colon
PC-3 prostate = system: PC-3 prostate
HOP-92 NSCLC = system: HOP-92 NSCLC
RXF 393 renal = system: RXF 393 renal
A549 NSCLC = system: A549 NSCLC
HL-60(TB) leukemia = system: HL-60(TB) leukemia
U251 CNS = system: U251 CNS
MDA-MB-435 = system: MDA-MB-435
HCT-15 colon = system: HCT-15 colon
HCC-2998 colon = system: HCC-2998 colon
NCI-H23 lung = system: NCI-H23 lung
NCI-H460 lung = system: NCI-H460 lung
T-47D breast = system: T-47D breast
OVCAR-5 ovarian = system: OVCAR-5 ovarian
HT29 colon = system: HT29 colon
A498 renal = system: A498 renal
SN12C renal = system: SN12C renal
OVCAR-4 ovarian = system: OVCAR-4 ovarian
EKVX NSCLC = system: EKVX NSCLC
HS 578T breast = system: HS 578T breast
KM12 colon = system: KM12 colon

Nc1nc(Cl)nc2c1ncn2C1OC(CO)C(O)C1O (stereo unspecified)
> 100 µM: TGI (OVCAR-3 ovarian) | TGI (OVCAR-8 ovarian) | TGI (UACC-257 melanoma) | TGI (ACHN renal) | TGI (UO-31 renal) | TGI (SF-295 CNS) | TGI (SK-MEL-5 melanoma) | TGI (HOP-62 NSCLC) | TGI (NCI-H522 lung) | TGI (SF-539 CNS) | TGI (NCI-H226 lung) | TGI (RPMI-8226 leukemia) | TGI (DU-145 prostate) | TGI (CCRF-CEM leukemia) | TGI (BT-549 breast) | TGI (SK-MEL-28 melanoma) | TGI (SR leukemia) | TGI (SW-620 colon) | TGI (SF-268 CNS) | TGI (IGROV1 ovarian) | TGI (UACC-62 melanoma) | TGI (MDA-MB-231 breast) | TGI (MALME-3M melanoma) | TGI (NCI/ADR-RES ovarian) | TGI (SK-OV-3 ovarian) | TGI (COLO 205 colon) | TGI (TK-10 renal) | TGI (LOX IMVI melanoma) | TGI (SNB-19 CNS) | TGI (CAKI-1 renal) | TGI (MCF7 breast) | TGI (SNB-75 CNS) | TGI (SK-MEL-2 melanoma) | TGI (K-562 leukemia) | TGI (HCT-116 colon) | TGI (PC-3 prostate) | TGI (HOP-92 NSCLC) | TGI (RXF 393 renal) | TGI (A549 NSCLC) | TGI (U251 CNS) | TGI (MDA-MB-435) | TGI (HCT-15 colon) | TGI (HCC-2998 colon) | TGI (NCI-H23 lung) | TGI (NCI-H460 lung) | TGI (T-47D breast) | TGI (OVCAR-5 ovarian) | TGI (HT29 colon) | TGI (A498 renal) | TGI (SN12C renal) | TGI (OVCAR-4 ovarian) | TGI (EKVX NSCLC) | TGI (HS 578T breast) | TGI (KM12 colon)
> 41.2 µM: TGI (MOLT-4 leukemia)
inactive: GI50 (OVCAR-3 ovarian) > 100 µM | GI50 (UACC-257 melanoma) > 100 µM | GI50 (ACHN renal) 3.98 µM | GI50 (MOLT-4 leukemia) 0.493 µM | GI50 (UO-31 renal) 3.32 µM | GI50 (SF-295 CNS) > 100 µM | GI50 (SK-MEL-5 melanoma) 2.89 µM | GI50 (HOP-62 NSCLC) 3.36 µM | GI50 (NCI-H522 lung) > 100 µM | GI50 (SF-539 CNS) > 90.1 µM | GI50 (NCI-H226 lung) > 100 µM | GI50 (RPMI-8226 leukemia) > 100 µM | GI50 (DU-145 prostate) 6.76 µM | GI50 (BT-549 breast) 16.8 µM | GI50 (SK-MEL-28 melanoma) > 100 µM | GI50 (SR leukemia) 8.92 µM | GI50 (SW-620 colon) 36.1 µM | GI50 (SF-268 CNS) 10.7 µM | GI50 (786-0 renal) 2.57 µM | GI50 (IGROV1 ovarian) > 100 µM | GI50 (UACC-62 melanoma) 5.7 µM | GI50 (MDA-MB-231 breast) > 100 µM | GI50 (MALME-3M melanoma) > 100 µM | GI50 (NCI/ADR-RES ovarian) 0.579 µM | GI50 (SK-OV-3 ovarian) 7.5 µM | GI50 (COLO 205 colon) 5.76 µM | GI50 (M14 melanoma) 0.999 µM | GI50 (TK-10 renal) > 100 µM | GI50 (LOX IMVI melanoma) 15.2 µM | GI50 (SNB-19 CNS) 2.72 µM | GI50 (CAKI-1 renal) 4.3 µM | GI50 (MCF7 breast) 1.66 µM | GI50 (SNB-75 CNS) > 100 µM | GI50 (SK-MEL-2 melanoma) > 100 µM | GI50 (K-562 leukemia) > 85.3 µM | GI50 (HCT-116 colon) 4.23 µM | GI50 (PC-3 prostate) > 100 µM | GI50 (HOP-92 NSCLC) 6.27 µM | GI50 (RXF 393 renal) > 100 µM | GI50 (A549 NSCLC) 4.41 µM | GI50 (U251 CNS) 13.2 µM | GI50 (MDA-MB-435) 3.01 µM | GI50 (HCT-15 colon) 7.57 µM | GI50 (HCC-2998 colon) > 21.9 µM | GI50 (NCI-H23 lung) 4.08 µM | GI50 (NCI-H460 lung) 12.6 µM | GI50 (T-47D breast) > 100 µM | GI50 (OVCAR-5 ovarian) 86.9 µM | GI50 (HT29 colon) > 93.3 µM | GI50 (A498 renal) > 64.4 µM | GI50 (SN12C renal) 0.899 µM | GI50 (OVCAR-4 ovarian) > 100 µM | GI50 (EKVX NSCLC) > 96.8 µM | GI50 (HS 578T breast) > 100 µM | GI50 (KM12 colon) > 100 µM
active: GI50 (OVCAR-8 ovarian) 0.403 µM | GI50 (CCRF-CEM leukemia) 0.264 µM | GI50 (HL-60(TB) leukemia) 0.374 µM
4.2 µM: TGI (M14 melanoma)
> 93.6 µM: TGI (HL-60(TB) leukemia)
> 73.4 µM: TGI (786-0 renal)
